Converted amounts (≈) assume the structure as drawn.
Columns and labels:
Format in all cases: cell-based
[1] = test system: 17 clinically relevant bacterial strains; experiment: Checkerboard assays with rifampicin, summary over the panel; settings: compound 3 in combination of rifampicin; 17 test strains
Excerpt: The 17 test strains/isolates were: (1) Serratia marcescens (ATCC 13880); (2) Salmonella typhimurium (ATCC 13311); (3) Salmonella choleraesuis (ATCC 10708); (4) Acinetobacter baumannii (ATCC BAA-1605); (5) A. baumannii (ATCC 17978); (6) A. baumannii (FDA-CDC AR-BANK#0088); (7) Citrobacter freundii (ATCC 8090); (8) Pseudomonas aeruginosa (BCCM 27647); (9) P. aeruginosa (BCCM 27648); (10) Escherichia coli (ATCC 25922); (11) E. coli (ATCC 10536); (12) Stenotrophomonas maltophilia (ATCC 13637); (13) Enterobacter cloacae (ATCC BAA-1143); (14) E. cloacae (ATCC 13047); (15) E. aerogenes (ATCC 13048); (16) Klebsiella pneumoniae (NCTC 13438); and (17) Klebsiella pneumoniae (FDA-CDC AR-BANK#0160). […]
The 17 test strains were grown on nutrient agar or tryptic soy agar (TSA) medium as below. […] The absorbance of the bacterial suspension was measured with a spectrophotometer at OD620nm, and then the suspension was adjusted to 1-2×10^8 CFU/mL in PBS. […] The actual microbial count in the assay ranged from 2˜8×10^5 CFU/mL as determined from dilution plating. […]
Assay plates were incubated and MIC endpoints were read as complete inhibition of visual growth. […]
FIC (Fraction Inhibitory Concentration) and FIC Index (FICI) values for each test condition and the average of FICI values of all pairwise combinations were calculated to determine if synergy or antagonism existed between the two substances. […]

[2] = Anti-fungal MIC assay, summary of first round; settings: read-out: Isolate MIC (100%); range over isolates of the first round of testing
Protocol: The first round of testing included Candida parapsilosis, Candida krusei, Paecilomyces variotii, Candida albicans, Aspergillus fumigatus, and Blastomyces dermatitidis. […] The second round of testing included Candida parapsilosis, Candida krusei, Candida albicans, Candida auris, Candida glabrata, Candida guilliermondii, and Cryptococcus neoformans.
Stock solutions of the investigational agent were prepared at concentrations 100-times the highest concentration to be tested (6400 μg/ml) using dimethyl sulfoxide. Aliquots of the stock solutions were dispensed into polystyrene vials and stored at −20° C.
The synthetic medium RPMI-1640 (with glutamine, without bicarbonate, and with phenol red) was used. The RPMI was buffered to a pH of 7.0+0.1 at 25° C. with 0.165M MOPS (3-[N-morpholino] propanesulfonic acid). Sterile U-shaped 96-well cell culture plates were used to perform the MIC assays. […]
Fungal isolates were grown on Sabouraud dextrose agar (yeasts) or potato flake agar (filamentous fungi) and cells were collected after an appropriate period of growth for each species being evaluated (e.g., 48-72 hours for yeasts and 7 days for filamentous fungi). The fungi were suspended in sterile distilled water, and the densities of the fungal suspension were read using a spectrophotometer and adjusted to an appropriate optical density specific for each fungal species. […]

[3] = test system: Pseudomonas aeruginosa (BCCM 27647); experiment: Checkerboard/MIC assay with rifampicin; settings: Pseudomonas aeruginosa BCCM27647
Excerpt: (§1) The 17 test strains/isolates were: (1) Serratia marcescens (ATCC 13880); (2) Salmonella typhimurium (ATCC 13311); (3) Salmonella choleraesuis (ATCC 10708); (4) Acinetobacter baumannii (ATCC BAA-1605); (5) A. baumannii (ATCC 17978); (6) A. baumannii (FDA-CDC AR-BANK#0088); (7) Citrobacter freundii (ATCC 8090); (8) Pseudomonas aeruginosa (BCCM 27647); (9) P. aeruginosa (BCCM 27648); (10) Escherichia coli (ATCC 25922); (11) E. coli (ATCC 10536); (12) Stenotrophomonas maltophilia (ATCC 13637); (13) Enterobacter cloacae (ATCC BAA-1143); (14) E. cloacae (ATCC 13047); (15) E. aerogenes (ATCC 13048); (16) Klebsiella pneumoniae (NCTC 13438); and (17) Klebsiella pneumoniae (FDA-CDC AR-BANK#0160). These bacterial strains were obtained from the American Type Culture Collection (ATCC, Rockville, MD, USA); Belgian Coordinated Collections of Microorganisms; The Culture Collections of Public Health England, UK; and FDA-CDC anticimrobial Resistance Isolate Bank, USA, and cryopreserved as single-use frozen working stock cultures which were stored at −80° C.
(§2) The 17 test strains were grown on nutrient agar or tryptic soy agar (TSA) medium as below. Colonies were suspended in phosphate buffered saline (PBS) pH 7.4. The absorbance of the bacterial suspension was measured with a spectrophotometer at OD620nm, and then the suspension was adjusted to 1-2×10^8 CFU/mL in PBS. The adjusted suspension was further diluted 1:500 in cation-adjusted Mueller-Hinton Broth. Each well contained approximately 5×10^5 CFU/mL. […] The testing inoculum was prepared within minutes before adding to wells of the test plate.
(§3) Compound 3 was tested in 8 points by two-fold serial titrations from 100 to 0.78 μg/mL. […] Assay plates were incubated and MIC endpoints were read as complete inhibition of visual growth. The checkerboard combination analysis was performed following the MIC testing protocol to identify potential synergistic, indifferent or antagonistic interactions. The analysis also included each test substance alone at the same concentration ranges.
(§4) FIC (Fraction Inhibitory Concentration) and FIC Index (FICI) values for each test condition and the average of FICI values of all pairwise combinations were calculated to determine if synergy or antagonism existed between the two substances. The FIC index was determined by calculating the sum of the ratios of MICs (minimum inhibitory concentrations) for both substances. […] Synergy is defined as the FICI (Σ)≤0.5; additivity or indifference are defined as the FICI (Σ)>0.5 to ≤4; antagonism is defined as the FICI (Σ)>4. The two fold of highest test article concentration was used for FIC value calculations in the circumstances where MIC values were greater than the highest test article concentration.

[4] = test system: Acinetobacter baumannii (ATCC BAA-1605); experiment: Checkerboard/MIC assay with rifampicin; settings: Acinetobacter baumannii BAA-1605
Excerpt: as §1, §2, §3, §4

[5] = test system: E. aerogenes (ATCC 13048); experiment: Checkerboard/MIC assay with rifampicin; settings: Enterobacter aerogenes ATCC-13048
Excerpt: as §1, §2, §3, §4

[6] = test system: P. aeruginosa (BCCM 27648); experiment: Checkerboard/MIC assay with rifampicin; settings: Pseudomonas aeruginosa BCCM27648
Excerpt: as §1, §2, §3, §4

E. coli (ATCC 10536) = experiment: Checkerboard/MIC assay with rifampicin; settings: Escherichia coli ATCC 10536
Excerpt: as §1, §2, §3, §4

[7] = compound 3 in combination with rifampicin

## N=C(N)c1ccc(CC[C@H]2CCC[C@@H](CCc3ccc(C(=N)N)cc3)C2)cc1 [Compound 3, 4,4′-(2,2′-((1R,3S)-cyclohexane-1,3-diyl)bis(ethane-2,1-diyl))dibenzimidamide]
[1]
  combination effect with rifampicin: synergistic effects for most tested strains
[2]
  MIC: 1 to 64 µg/mL (≈ 2.66 to 170 µM)
[3]; [7]
  Combination Result: additivity/
  FICI (Average): 1.03
[3]; substance alone
  MIC: 25 µg/mL
[4]; [7]
  Combination Result: synergy (Synergy is defined as the FICI (Σ)≤0.5)
  FICI (Average): 0.31
[4]; substance alone
  MIC: 25 µg/mL
[5]; Klebsiella aerogenes, ATCC13048, substance alone
  MIC: 100 µg/mL
[5]; [7]
  Combination Result: synergy (Synergy is defined as the FICI (Σ)≤0.5)
  FICI (Average): 0.19
[6]; [7]
  Combination Result: additivity/
  FICI (Average): 1.03
[6]; substance alone
  MIC: 25 µg/mL
E. coli (ATCC 10536); ATCC10536, substance alone
  MIC: 6.25 µg/mL
E. coli (ATCC 10536); [7]
  Combination Result: synergy (Synergy is defined as the FICI (Σ)≤0.5)
  FICI (Average): 0.48

From US20230391727A1, “ANALOGUES OF PENTAMIDINE AND METHODS FOR TREATING INFECTIONS” (Auransa Inc., priority 2020, published 2023)
